Test results taken from patent US20160067211A1, “PHARMACEUTICAL COMPOSITION” (Eberhard Karls Universitaet Tuebingen Medizinische Fakultaet, priority 2013, published 2016).

Columns and labels:
P-glycoprotein = P-glycoprotein (Homo sapiens, UniProt P08183); conditions: cited from earlier work
[1] = test system: cleaved caspase-3 in SK-MEL-28 melanoma cells; experiment: Western blot for cleaved caspase-3; format: cell-based, human; conditions: SK-MEL-28, 100 μM
Experimental: Western blot analysis of SK-MEL-28 melanoma cells treated with 100 μM of 6-PN, 8-PN, SAHA or TSA. EtOH and DMSO were applied as controls.
(§1) The following antibodies were used: Anti-Vinculin and Anti-Actin (1:5000, Sigma-Aldrich), Anti-Acetyl-Histon H3 (1:5000, Millipore, Billerica, USA), Anti-Caspase-3 (1:1000), Anti-AKT, Anti-pAKT, Anti-ERK, Anti-pERK, […], Anti-p70S6 Kinase, and Anti-pS6 protein (1:1000), all from Cell Signaling, Frankfurt, Germany), Anti-LC3 (1:5000, Sigma-Aldrich).
To further analyze the type of cell death induced by 6-PN and 8-PN, western blot analyses of SK-MEL-28 melanoma cells were performed 1, 2, 4, 12 and 24 hours after the treatment with 100 μM 6-PN and 8-PN. […] Upon PN treatment an inconsistent expression of oncogenic AKT and phospho-AKT (pAKT) was detected. […] Thus, there was an obvious discrepancy between the expression of pAKT and pS6P. Therefore it was first also looked for the expression of P70S6 kinase and its phosphorylated form. […] Therefore it was next asked whether the S6P could be phosphorylated by a different mechanism. In this respect, activated ERK can phosphorylate the p90 ribosomal S6 kinase (pP90). pP90 also phosphorylates the S6P (in addition to the P70S6 kinase). Since the pP70S6 kinase was absent in the used cells (SK-MEL-28 and BLM), it was hypothesized that the phosphorylation of the S6P was conducted via the pERK/pP90 pathway, independent from the P70S6 signalling. This hypothesis was supported by the parallel down-regulation of the bands for pP90 (Thr359/Ser363) and pS6P 12 hours after the treatment with 6-PN, and the reappearance of both bands after 24 hours (FIG. 8). […] The western blot experiments were repeated with BLM cells under the same treatment conditions and yielded similar results (not shown).

SK-MEL-28 melanoma cells [2] = experiment: PI/Annexin V staining FACS, SK-MEL-28; format: cell-based, human; conditions: SK-MEL-28, 100 μM; for annexin V positive (apoptotic) cells: DMSO control 2.5%; for PI positive (nectrotic) cells: DMSO control 7.9%
Experimental: (§2) (A) Cell cycle FACS analyses of PI stained BLM and SK-MEL-28 melanoma cells. 100 μM of 8-PN-induced a G2 arrest in both cells. (B) FACS analyses of BLM and SK-MEL-28 melanoma cells treated with 100 μM 6-PN or 8-PN and stained for annexin V/PI; staurosporin was used as control for apoptosis induction and DMSO as vehicle control. […] (C) BLM and SK-MEL-28 melanoma cells were treated with 100 μM of PNs; TSA, SAHA and EMSO were used as controls.
(§3) To further analyze the possibility of apoptosis induction, an extensive apoptosis assay was performed on SK-MEL-28 melanoma cells 4 hours after treatment with 100 μM 6-PN or 8-PN (FIG. 9). […] This was verified by FACS cell cycle analyses to screen for a possible increase of the sub-G1 fraction of cells (apoptotic cells) or for the induction of a G2 arrest (inhibition of proliferation). […] To further differentiate between the induction of apoptosis and/or necrosis an PI/Annexin V staining of SK-MEL-28 and BLM cells was performed 4 hours and 24 hours after the treatment with 6-PN or 8-PN; 10 μM staurosporin (6 hours treatment) was used as positive control for the induction of apoptosis; DMSO treatment was used as vehicle control. The cells were then analyzed by FACS.

[3] = test system: estrogen receptors of the rat uterus; conditions: cited from earlier work
BLM melanoma cells = experiment: PI/Annexin V staining FACS, BLM; format: cell-based, human; conditions: 100 μM; for annexin V positive (apoptotic) cells: DMSO control 4.1%; for PI positive (nectrotic) cells: DMSO control 9.1%
Experimental: as §2, §3

angiogenesis = conditions: chorioallantois membrane assays in vivo; cited from earlier work
SK-MEL-28 melanoma cells [4] = experiment: FACS cell cycle analysis (PI), SK-MEL-28; format: cell-based, human; conditions: SK-MEL-28, 100 μM, 48 hours
Experimental: as §2, §3

[5] = test system: histon protein H3 acetylation in SK-MEL-28 melanoma cells; experiment: Western blot of acetylated histon H3, SK-MEL-28; format: cell-based, human; conditions: SK-MEL-28, 100 μM, two hours, vs. DMSO control
Experimental: FIG. 4: 6-PN and 8-PN induce a hyper acetylation in SK-MEL-28 melanoma cells. Western blot analysis of acetylated histon complex H3 in cellular lysates of BLM and SK-MEL-28 cells treated with 100 μM 6-PN or 8-PN for 1, 2, 4, 12 and 24 h, or with 100 μM SAHA (as reference HDACi) for 24 h. Equal protein loading was verified by vinculin staining (lower rows). At 24 hours (BLM) and 2 hours (SK-MEL-28) after the PN treatment a prominent up-regulation of ac-H3 is detectable. The protein expression levels were estimated performing a densitometric analysis.
as §1
An incubation of cells with HDACi induces generally a hyperacetylation of histon proteins. Therefore, the acetylation status of the histon protein H3 after treatment with 6-PN or 8-PN was investigated. Corresponding to the HDAC screening results, a direct effect was monitored. […] SAHA was used as control HDACi (at 100 μM, 24 hours treatment).

Sequence of P-glycoprotein (P08183 whole entry): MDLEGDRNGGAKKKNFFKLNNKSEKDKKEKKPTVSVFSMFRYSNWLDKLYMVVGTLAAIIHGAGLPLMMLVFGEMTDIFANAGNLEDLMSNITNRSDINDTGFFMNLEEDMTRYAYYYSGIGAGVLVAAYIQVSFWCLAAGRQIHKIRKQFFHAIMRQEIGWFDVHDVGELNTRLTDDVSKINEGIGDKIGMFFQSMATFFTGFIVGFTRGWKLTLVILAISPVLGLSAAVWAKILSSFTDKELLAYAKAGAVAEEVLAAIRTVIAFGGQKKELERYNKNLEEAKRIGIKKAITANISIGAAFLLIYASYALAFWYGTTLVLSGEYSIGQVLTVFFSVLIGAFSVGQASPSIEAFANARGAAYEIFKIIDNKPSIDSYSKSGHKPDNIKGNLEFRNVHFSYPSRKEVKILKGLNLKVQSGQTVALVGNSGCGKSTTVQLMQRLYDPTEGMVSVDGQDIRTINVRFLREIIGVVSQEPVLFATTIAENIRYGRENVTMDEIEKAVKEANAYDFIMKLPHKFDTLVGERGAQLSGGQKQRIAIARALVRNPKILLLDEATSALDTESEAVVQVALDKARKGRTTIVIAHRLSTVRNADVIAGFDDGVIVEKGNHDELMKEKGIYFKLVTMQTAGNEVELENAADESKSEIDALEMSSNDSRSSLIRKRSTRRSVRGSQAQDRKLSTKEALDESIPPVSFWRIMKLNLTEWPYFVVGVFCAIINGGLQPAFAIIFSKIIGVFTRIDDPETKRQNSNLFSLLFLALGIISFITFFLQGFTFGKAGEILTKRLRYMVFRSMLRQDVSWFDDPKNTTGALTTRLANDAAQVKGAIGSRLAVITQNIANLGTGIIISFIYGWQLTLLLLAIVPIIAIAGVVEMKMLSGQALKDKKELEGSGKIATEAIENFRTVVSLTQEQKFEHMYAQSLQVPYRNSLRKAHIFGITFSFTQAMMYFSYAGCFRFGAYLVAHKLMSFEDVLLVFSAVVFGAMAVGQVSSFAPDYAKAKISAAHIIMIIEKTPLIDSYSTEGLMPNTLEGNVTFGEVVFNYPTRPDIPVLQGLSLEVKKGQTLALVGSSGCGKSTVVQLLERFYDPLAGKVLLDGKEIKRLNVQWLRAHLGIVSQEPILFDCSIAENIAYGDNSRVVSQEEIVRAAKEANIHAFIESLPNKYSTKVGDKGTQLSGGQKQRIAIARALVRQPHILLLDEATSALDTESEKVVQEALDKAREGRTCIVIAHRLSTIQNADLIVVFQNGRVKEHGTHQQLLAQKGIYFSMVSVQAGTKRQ

CC(C)=CCc1c(O)cc(O)c2c1OC(c1ccc(O)cc1)CC2=O (stereo not drawn) [8-PN, 5,7-Dihydroxy-2-(4-hydroxy-phenyl)-8-(3-methyl-but-2-enyl)-chroman-4-one]
inhibition of the P-glycoprotein (P-glycoprotein): inhibition | band for cleaved caspase-3 [1]: no additional band | annexin V positive (apoptotic) cells (SK-MEL-28 melanoma cells [2]; 4 hours): 0.2% | PI positive (nectrotic) cells (SK-MEL-28 melanoma cells [2]; 4 hours): 29.9% | annexin V positive (apoptotic) cells (SK-MEL-28 melanoma cells [2]; 24 hours): 0.5% | PI positive (nectrotic) cells (SK-MEL-28 melanoma cells [2]; 24 hours): 58.2% | binding affinity for estrogen receptors [3]: strong binding affinity | annexin V positive (apoptotic) cells (BLM melanoma cells; 4 hours): 1.2% | PI positive (nectrotic) cells (BLM melanoma cells; 4 hours): 27% | annexin V positive (apoptotic) cells (BLM melanoma cells; 24 hours): 5.9% | PI positive (nectrotic) cells (BLM melanoma cells; 24 hours): 22.4% | angiogenesis (angiogenesis): inhibits the angiogenesis | sub-G1 fraction (apoptotic cells) (SK-MEL-28 melanoma cells [4]): remained unaffected | cells in the G2 phase (SK-MEL-28 melanoma cells [4]; DMSO control 20.1%): 49.8% | histon complex H3 acetylation [5]: massive increase
